Data taken from patent US7524849B2, “5-arylpyrimidines as anticancer agents” (Wyeth Holdings Corporation, priority 2003, dated 2009).
Like-named read-outs stand apart in the source and are kept apart here. Marks after values point to notes of the source that are not given here.

Assays:
S1 cells = assay: MTS cytotoxicity test with S1 cells; format: cell-based, human; conditions: mean of 2 experiments
Description: (§1) Human cancer cell lines, unless otherwise noted, are obtained from the American Type Culture Collection (Rockville, Md.). The following drug-sensitive parental cell lines, and their derived drug-resistant counterparts, are obtained from the originators as listed: (a) S1 (parental line from a subclone of human colon carcinoma line LS174T) and derived S1-M1-3.2 (herein called S1-M1) which expresses the MXR drug transporter protein, are provided by Dr. L. Greenberger, Wyeth Research (Rabindran, S. K., He, H., Singh, M., Brown, E., Collins, K. I., Annable, T., and Greenberger, L. M. Reversal of a novel multidrug resistance mechanism in human colon carcinoma cells by fumitremorgin C. Cancer Res., 58: 5850-5858, 1998); (b) parental HL-60 human promyelocytic leukemia line and derived HL-60/ADR, which expresses the MRP1 drug transporter protein, are provided by Dr. M. Center, University of Kansas (McGrath, T., and Center, M. S. Adriamycin resistance in HL60 cells in the absence of detectable P-glycoprotein. Biochem. Biophys. […] J. Biol. Chem., 261: 7762-7770, 1986) via Dr. L. Greenberger, Wyeth Research.
(§2) The assay, which is sold in kit form by Promega (Madison, Wis.; CellTiter 96 AQueous Non-Radioactive Cell Proliferation Assay), is based on the conversion by viable cells, but not by dead cells, of the tetrazolium salt, MTS (3-(4,5-dimethylthiazol-2-yl)-5-(3-carboxymethoxyphenyl)-2-(4-sulphophenyl)-2H-tetrazolium, inner salt), into a water-soluble colored formazan which is detected by spectrophotometry. Compounds are tested at nine concentrations, in order to determine IC50 values. For the test procedure, cells are harvested by trypsinization, washed, counted and distributed to wells of 96-well flat-bottom microtiter plates at 1000 cells per well in 200 μL of medium. In addition, one row of wells on a separate plate receives cells as above (“time 0” plate). All plates are incubated at 37° in humidified 5% CO2 in air for about 24 hr.
(§3) On day 2, compounds for test are diluted and added to wells. Compounds are dissolved in DMSO at 10 mg/mL. For each compound, nine serial 2-fold dilutions are prepared in DMSO. Ten μL of each dilution in DMSO are transferred to 100 μL of medium, mixed well, and then 5 μL of this dilution are transferred in quadruplicate to wells containing cells. […] Plates are returned to the incubator for three days. At the time of drug addition to the experimental plates, the MTS assay is run on the “time 0” plate. This produces the “time 0 MTS value” which is related to the number of viable cells per well at the time of drug addition.
(§4) After three days of culture with test compounds (day 5 overall), the MTS assay is done on all wells of the experimental plates. The absorbance values of the quadruplicate sample wells are averaged and divided by the average of the “time 0” values. […] The nine values for each compound are plotted against concentration, and the concentration that produces a relative color yield half way between the maximum and minimum is taken as the IC50 value.
(§5) S1-M1 cells overexpress the MXR transporter which mediates resistance to some chemotherapeutics (Gottesman, M. M., Fojo, T., and Bates, S. E. Miltidrug resistance in cancer: role of ATP-dependent transporters. Nature Rev. Cancer, 2: 48-58, 2002). The IC50 values of representative examples of this invention, as well as reference compounds, on S1-M1 are compared to values on the sensitive parental S1 line.

S1-M1 cells = assay: MTS cytotoxicity test with S1-M1 cells (MXR); format: cell-based, human; conditions: for IC50: S1-M1 cells, mean of 2 experiments; for Ratio: IC50 on S1-M1 cells/IC50 on S1 cells
Description: as §1, §2, §3, §4, §5

KB-V1 cells = assay: MTS cytotoxicity test with KB-V1 cells (very high P-glycoprotein); format: cell-based, human; conditions: for IC50: KB VI cells, mean of 2 experiments; for Ratio VI/KB: IC50 on KB VI cells/IC50 on KB cells
Description: as §1, §2, §3, §4

HL-60 cells = assay: MTS cytotoxicity test with HL-60 cells; format: cell-based, human; conditions: mean of 2 experiments
Description: as §1, §2, §3, §4
as §5, with “HL-60/ADR” for “S1-M1”, “multidrug resistance protein MRP1” for “MXR transporter”, “Multidrug” for “Miltidrug”, “HL-60” for “S1”

[1] = tested on: H157 Human Non-Small Cell Lung Carcinoma; conditions: for growth of xenografts: H157 NSCLC;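 as to all read-outs here: subcutaneous flank tumors in female athymic nu/nu mice, staged near 100 mm^3 on day 0, tumor volume from caliper measurements, vehicle-dosed controls on the same schedule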
Description: The ability of compounds of this invention to inhibit tumor growth in animals is studied in the athymic mouse xenograft standard pharmacological test. Female nu/nu mice in an outbred albino background are obtained from Charles River Laboratories (Wilmington, Mass.). Animals are injected subcutaneously on the flank with the desired tumor cell suspension. Several days later, mice with tumors of approximately 100 mm^3 are selected from those injected (staged) and randomly distributed into groups of 5-10. The day of staging is called day 0. Compounds of the invention, formulated in saline, are administered to animals by intravenous injection or oral gavage on various schedules starting on day 0 or 1, as noted in the tables. The control group in each experiment is dosed with vehicle on the same schedule. Tumor size is measured every 3-7 days with calipers in two orthogonal dimensions, and tumor volume is calculated from the formula volume=[(length×width^2)/2].
Tumor/Control (T/C) is obtained by dividing the mean tumor volume of the treated group by the mean tumor volume of the control group on each measurement day. […] A p value≦0.05, determined by one-side Student's t-test, is required for statistical significance. A treatment dose is defined as toxic if more than 30% of the animals die from a compound-related toxicity.

KB cells = assay: MTS cytotoxicity test with KB cells; format: cell-based, human; conditions: mean of 2 experiments
Description: as §1, §2, §3, §4

KB-8-5 cells = assay: MTS cytotoxicity test with KB-8-5 cells (moderate P-glycoprotein); format: cell-based, human; conditions: for IC50: KB 8.5 cells, mean of 2 experiments; for Ratio 8.5/KB: IC50 on KB 8.5 cells/IC50 on KB cells
Description: as §1, §2, §3, §4

[2] = 5 mg/kg IV, schedule day 0, H157 (Table 11)
[3] = 5 mg/kg PO, schedule day 0, H157
[4] = 1.5 mg/kg IV, schedule days 0, 7, H157
[5] = 3 mg/kg IV, schedule days 0, 7, H157
[6] = 1 mg/kg PO, schedule days 1, 7, H157
[7] = 5 mg/kg PO, schedule days 1, 7, H157

Question: `CC(=O)O[C@H]1C(=O)[C@@]2(C)[C@H]([C@H](OC(=O)c3ccccc3)[C@]3(O)C[C@H](OC(=O)[C@H](O)[C@@H](NC(=O)c4ccccc4)c4ccccc4)C(C)=C1C3(C)C)[C@]1(OC(C)=O)CO[C@@H]1C[C@@H]2O` [Paclitaxel, reference compound] was tested. Which IC50 (S1 cells; Homo sapiens) did it give?
Answer: Its IC50 is 4.2 nM.

Question: And the IC50 (S1-M1 cells; Homo sapiens)?
Answer: Its IC50 is 2.7 nM.

Question: What about the IC50 (KB-V1 cells; Homo sapiens, KB-V1) of the same compound?
Answer: Its IC50 is 2010 nM.

Question: What about the IC50 (HL-60 cells; Homo sapiens) of the same compound?
Answer: The IC50 was 3 nM.

Question: How did the “T/C on day 0” value [1, 2] turn out when `CNCCCOc1cc(F)c(-c2c(Cl)nc(-c3ccccn3)nc2N[C@@H](C)C(F)(F)F)c(F)c1.Cl` [Example 29a, 6-Chloro-5-{2,6-difluoro-4-[3-(methylamino)propoxy]phenyl}-2-pyridin-2-yl-N-[(S)-2,2,2-trifluoro-1-methylethyl]pyrimidin-4-amine hydrogen chloride] was run?
Answer: The value was 1.03.

Question: What about the “T/C on day 2” value [1, 2] of the same compound?
Answer: The value was 0.34**.

Question: And the “T/C on day 7” value [1, 2]?
Answer: The value was “Toxic”.

Question: What about the “T/C on day 0” value [1, 3] of the same compound?
Answer: The value was 1.02.

Question: What about the “T/C on day 2” value [1, 3] of the same compound?
Answer: Its value is 0.43**.

Question: And the “T/C on day 7” value [1, 3]?
Answer: Its value is 0.37**.

Question: And the “T/C on day 9” value [1, 3]?
Answer: Its value is 0.33**.

Question: What about the “T/C on day 14” value [1, 3] of the same compound?
Answer: Its value is 0.25**.

Question: And the growth of xenografts ([1]; orally on day 0 with 5 mg/kg)?
Answer: The growth of xenografts was “inhibits the growth”.

Question: What about the IC50 (S1 cells; Homo sapiens) of the same compound?
Answer: Its IC50 is 7.9 nM.

Question: And the IC50 (KB cells; Homo sapiens)?
Answer: Its IC50 is 6.2 nM.

Question: And the IC50 (S1-M1 cells; Homo sapiens)?
Answer: The IC50 was 21 nM.

Question: What about the Ratio (S1-M1 cells) of the same compound?
Answer: Its Ratio is 2.7.

Question: And the IC50 (KB-V1 cells; Homo sapiens, KB-V1)?
Answer: Its IC50 is 423 nM.

Question: And the “Ratio VI/KB” value (KB-V1 cells)?
Answer: Its value is 69.

Question: And the IC50 (KB-8-5 cells; Homo sapiens)?
Answer: Its IC50 is 21 nM.

Question: What about the “Ratio 8.5/KB” value (KB-8-5 cells) of the same compound?
Answer: Its value is 3.4.

Question: What about the IC50 (HL-60 cells; Homo sapiens) of the same compound?
Answer: The IC50 was 6.9 nM.

Question: Which results are given for `CC[C@]1(O)C[C@H]2CN(CCc3c([nH]c4ccccc34)[C@@](C(=O)OC)(c3cc4c(cc3OC)N(C=O)[C@H]3[C@@](O)(C(=O)OC)[C@H](OC(C)=O)[C@]5(CC)C=CCN6CC[C@]43[C@@H]65)C2)C1` [Vincristine, reference compound]?
Answer: IC50 (S1 cells; Homo sapiens): 14 nM; IC50 (KB cells; Homo sapiens): 2.2 nM; IC50 (S1-M1 cells; Homo sapiens): 7.9 nM; Ratio (S1-M1 cells): 0.6; IC50 (KB-V1 cells; Homo sapiens, KB-V1): 2040 nM; Ratio VI/KB (KB-V1 cells): 925; IC50 (KB-8-5 cells; Homo sapiens): 58 nM; Ratio 8.5/KB (KB-8-5 cells): 26; IC50 (HL-60 cells; Homo sapiens): 2.5 nM

Question: For `CNCCCOc1cc(F)c(-c2c(Cl)nc(-n3cccn3)nc2N[C@@H](C)C(F)(F)F)c(F)c1.Cl` [Example 32a, 6-Chloro-5-{2,6-difluoro-4-[3-(methylamino)propoxy]phenyl}-2-(1H-pyrazol-1-yl)-N-[(1S)-2,2,2-trifluoro-1-methylethyl)pyrimidin-4-amine Hydrogen Chloride], which “T/C on day 0” value [1, 4] is on record?
Answer: Its value is 0.95.

Question: What about the “T/C on day 4” value [1, 4] of the same compound?
Answer: The value was 0.89.

Question: And the “T/C on day 7” value [1, 4]?
Answer: Its value is 0.63*.

Question: And the “T/C on day 13” value [1, 4]?
Answer: The value was 0.48*.

Question: And the “T/C on day 0” value [1, 5]?
Answer: Its value is 0.95.

Question: What about the “T/C on day 4” value [1, 5] of the same compound?
Answer: The value was 0.72.

Question: What about the “T/C on day 7” value [1, 5] of the same compound?
Answer: Its value is 0.46**.

Question: What about the “T/C on day 13” value [1, 5] of the same compound?
Answer: The value was 0.10**.

Question: What about the growth of xenografts ([1]; intravenously on days 0 and 7 at 3 or 1.5 mg/kg/dose) of the same compound?
Answer: The growth of xenografts was “inhibits the growth”.

Question: What about the IC50 (S1 cells; Homo sapiens) of the same compound?
Answer: The IC50 was 9.9 nM.

Question: What about the IC50 (KB cells; Homo sapiens) of the same compound?
Answer: The IC50 was 2.4 nM.

Question: What about the IC50 (S1-M1 cells; Homo sapiens) of the same compound?
Answer: Its IC50 is 8.7 nM.

Question: And the Ratio (S1-M1 cells)?
Answer: The Ratio was 0.9.

Question: And the IC50 (KB-V1 cells; Homo sapiens, KB-V1)?
Answer: The IC50 was 569 nM.

Question: And the “Ratio VI/KB” value (KB-V1 cells)?
Answer: The value was 242.

Question: What about the IC50 (KB-8-5 cells; Homo sapiens) of the same compound?
Answer: The IC50 was 32 nM.

Question: And the “Ratio 8.5/KB” value (KB-8-5 cells)?
Answer: Its value is 14.

Question: What about the IC50 (HL-60 cells; Homo sapiens) of the same compound?
Answer: The IC50 was 2.6 nM.

Question: With `CNCCCOc1cc(F)c(-c2c(Cl)nc(-c3cnccn3)nc2N[C@@H](C)C(F)(F)F)c(F)c1.Cl` [Example 24a, 6-Chloro-5-{2,6-difluoro-4-[3-(methylamino)propoxy]phenyl}-2-pyrazin-2-yl-N-[(1S)-2,2,2-trifluoro-1-methylethyl]pyrimidin-4-amine hygrogen chloride] as the compound, how does the “T/C on day 0” value [1, 6] read?
Answer: Its value is 0.96.

Question: And the “T/C on day 4” value [1, 6]?
Answer: Its value is 0.73*.

Question: What about the “T/C on day 7” value [1, 6] of the same compound?
Answer: Its value is 0.70.

Question: And the “T/C on day 10” value [1, 6]?
Answer: Its value is 0.58.

Question: And the “T/C on day 13” value [1, 6]?
Answer: The value was 0.50*.

Question: What about the “T/C on day 0” value [1, 7] of the same compound?
Answer: Its value is 0.98.

Question: What about the “T/C on day 4” value [1, 7] of the same compound?
Answer: The value was 0.64**.

Question: What about the “T/C on day 7” value [1, 7] of the same compound?
Answer: Its value is 0.51**.

Question: What about the “T/C on day 10” value [1, 7] of the same compound?
Answer: Its value is 0.16**.

Question: And the “T/C on day 13” value [1, 7]?
Answer: The value was 0.12**.

Question: And the growth of xenografts ([1]; orally on days 1 and 7 with 5 or 1 mg/kg/dose)?
Answer: Its growth of xenografts is “inhibits the growth”.

Question: What about the IC50 (S1 cells) of the same compound?
Answer: The IC50 was 20 nM.

Question: What about the IC50 (KB cells) of the same compound?
Answer: The IC50 was 7 nM.

Question: What about the Ratio (S1-M1 cells) of the same compound?
Answer: The Ratio was 2.7.

Question: And the IC50 (S1-M1 cells)?
Answer: The IC50 was 53 nM.

Question: What about the “Ratio VI/KB” value (KB-V1 cells) of the same compound?
Answer: The value was 58.

Question: What about the IC50 (KB-V1 cells) of the same compound?
Answer: The IC50 was 405 nM.

Question: What about the “Ratio 8.5/KB” value (KB-8-5 cells) of the same compound?
Answer: Its value is 3.5.

Question: And the IC50 (KB-8-5 cells)?
Answer: The IC50 was 24 nM.

Question: And the IC50 (HL-60 cells)?
Answer: The IC50 was 6.6 nM.
